Laboratory results reported in US20220282271A1, “HERBICIDE RESISTANT PLANTS AND METHODS OF MAKING AND USING” (OFFICE OF INNOVATION ADVANCEMENT AND COMMERCIALIZATION, priority 2019, published 2022).

How the values were obtained:
[1] = molecular target: recombinant variant E. indica PPO1 A212T (Eleusine indica, UniProt A0A6G5XNV7, A212T); test: In vitro PPO enzyme activity inhibition, variant PPO1 A212T; assay type: biochemical
Source text: Effects of A212T substitution were studied using the E. indica backbone. The wild-type E. indica PPO1 and the E. indica PPO1 A212T variants were synthesized de novo and subcloned into pRSetB plasmid (Invitrogen, Carlsbad, Calif.). The complete description of expression and purification of E. indica PPO1 and E. indica PPO1 A212T variant proteins were referenced to the method described for PPO2 by Rangani et al. (2019, Frontiers in Plant Sci., 10:568). Six PPO inhibitors, belonging to five different chemical families, were evaluated on the PPO enzyme activity at a concentrations ranging from 5.00×10^−5M to 5.12×10^−12M. Oxadiazon, sulfentrazone, saflufenacil and lactofen are from the class of oxadiazole, triazolinone, pyrimidinedione, and diphenyl ether, respectively. Flumioxazin and trifludimoxazin are from the same chemical family, N-phenylphthalimide. […] The assay was replicated twice.

[2] = system: PPO1 from S E. indica biotype (Ala212) expressed in hemG mutant E. coli strain SASX38; test: hemG mutant E. coli SASX38 complementation assay, S PPO1; assay type: cell-based, Eleusine indica; details: LB medium; 0, 10, 50, 100, 200 μM tested; 37° C., 20 h
Source text: Two putative PPO-inhibitor resistant (R-) and susceptible (S-) plasmids were created to test the role of the chloroplast-targeted PPO1 in the E. indica biotypes. The PPO1 from R1, R2 and S E. indica biotypes were cloned into the pBAD-TOPO expression vector using the pBAD TOPO™ TA Expression kit (Invitrogen, Carlsbad, Calif.), respectively. The PPO1 product was amplified using the same PCR primers and PCR reaction system as cDNA sequencing, so that the PPO1 translation began at the ATG start codon. Three different pBAD-TOPO PPO1 constructs were created and sequenced to confirm they were identical with the PPO1 gene from R1, R2 and S E. indica biotypes and there were no other nucleotide polymorphisms in the cloning experiment. R- and S-PPO1 plasmids were used to transform a hemG mutant Escherichia coli strain SASX38 by electroporation. The SASX38 mutant strain was grown on LB medium supplemented with 10 μg/mL hematin. Expression of the PPO1 in the transformed colonies of the SASX38 mutant strain were induced on LB medium with 2% L-arabinose. […]

Albizia julibrissin = test: Weed control screen: silktree; assay type: in vivo; details: 1.0 lb ai/a, applied approximately 3 weeks after emergence, relative to non-treated
Experimental: (§1) Herbicides were applied at a spray volume of 280 L/ha with no adjuvant added to any herbicide mixture. Weed control was rated on a 0 to 100 percent phytoxicity scale with 0 being no plant injury/phytotoxicity and 100 being complete plant dessication. Twenty-one weeds were evaluated for response to herbicides (Table 3). The weeds selected were a mixture of weeds common in agronomic and horticultural crops. Herbicide was applied to all species approximately 3 weeks after emergence. Plant phytotoxicity rated as percent control relative to the non-treated.

Crotalaria spectabilis = test: Weed control screen: showy crotalaria; assay type: in vivo; details: 1.0 lb ai/a, applied approximately 3 weeks after emergence, relative to non-treated
Experimental: as §1

Sesbania exaltata = test: Weed control screen: hemp sesbania; assay type: in vivo; details: 1.0 lb ai/a, applied approximately 3 weeks after emergence, relative to non-treated
Experimental: as §1

Physalis angulata = test: Weed control screen: cutleaf groundcherry; assay type: in vivo; details: 1.0 lb ai/a, applied approximately 3 weeks after emergence, relative to non-treated
Experimental: as §1

Murdannia nudiflora = test: Weed control screen: doveweed; assay type: in vivo; details: 1.0 lb ai/a, applied approximately 3 weeks after emergence, relative to non-treated
Experimental: as §1

Ipomoea lacunosa = test: Weed control screen: pitted morningglory; assay type: in vivo; details: 1.0 lb ai/a, applied approximately 3 weeks after emergence, relative to non-treated
Experimental: as §1

Sida spinosa = test: Weed control screen: prickly sida; assay type: in vivo; details: 1.0 lb ai/a, applied approximately 3 weeks after emergence, relative to non-treated
Experimental: as §1

Cyperus iria = test: Weed control screen: rice flatsedge; assay type: in vivo; details: 1.0 lb ai/a, applied approximately 3 weeks after emergence, relative to non-treated
Experimental: as §1

Ipomoea coccinea = test: Weed control screen: red morningglory; assay type: in vivo; details: 1.0 lb ai/a, applied approximately 3 weeks after emergence, relative to non-treated
Experimental: as §1

Ipomoea quamoclit = test: Weed control screen: cypressvine morningglory; assay type: in vivo; details: 1.0 lb ai/a, applied approximately 3 weeks after emergence, relative to non-treated
Experimental: as §1

Jaquemontia tamnifolia = test: Weed control screen: smallflower morningglory; assay type: in vivo; details: 1.0 lb ai/a, applied approximately 3 weeks after emergence, relative to non-treated
Experimental: as §1

Kyllinga squamulata = test: Weed control screen: cock's comb kyllinga; assay type: in vivo; details: 1.0 lb ai/a, applied approximately 3 weeks after emergence, relative to non-treated
Experimental: as §1

Sorghum halapense = test: Weed control screen: johnsongrass; assay type: in vivo; details: 1.0 lb ai/a, applied approximately 3 weeks after emergence, relative to non-treated
Experimental: as §1

Eleusine indica = test: Weed control screen: goosegrass; assay type: in vivo; details: 1.0 lb ai/a, applied approximately 3 weeks after emergence, relative to non-treated
Experimental: as §1

Abutilon theophrasti = test: Weed control screen: velvetleaf; assay type: in vivo; details: 1.0 lb ai/a, applied approximately 3 weeks after emergence, relative to non-treated
Experimental: as §1

Amaranthus hybridus = test: Weed control screen: smooth pigweed; assay type: in vivo; details: 1.0 lb ai/a, applied approximately 3 weeks after emergence, relative to non-treated
Experimental: as §1

Amaranthus palmeri = test: Weed control screen: glyphosate resistant palmer amaranth; assay type: in vivo; details: 1.0 lb ai/a, applied approximately 3 weeks after emergence, relative to non-treated
Experimental: as §1

Sequence of recombinant variant E. indica PPO1 A212T (A0A6G5XNV7 entry or part of it A212T): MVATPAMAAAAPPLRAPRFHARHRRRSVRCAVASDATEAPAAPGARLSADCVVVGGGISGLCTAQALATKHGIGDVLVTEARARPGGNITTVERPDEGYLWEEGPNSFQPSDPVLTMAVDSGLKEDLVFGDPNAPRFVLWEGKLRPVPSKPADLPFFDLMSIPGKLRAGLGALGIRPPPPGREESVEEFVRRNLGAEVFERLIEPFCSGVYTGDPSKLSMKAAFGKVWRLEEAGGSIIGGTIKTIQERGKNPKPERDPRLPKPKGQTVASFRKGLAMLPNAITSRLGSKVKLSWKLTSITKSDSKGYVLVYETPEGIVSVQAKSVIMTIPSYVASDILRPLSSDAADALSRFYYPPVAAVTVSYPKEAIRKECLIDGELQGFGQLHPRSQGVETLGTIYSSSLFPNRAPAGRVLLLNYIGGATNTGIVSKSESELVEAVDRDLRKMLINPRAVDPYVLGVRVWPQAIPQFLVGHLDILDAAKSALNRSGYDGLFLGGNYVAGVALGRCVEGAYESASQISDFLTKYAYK

SMILES: CC(C)Oc1cc(-n2nc(C(C)(C)C)oc2=O)c(Cl)cc1Cl [Oxadiazon, oxadiazon]
- IC50 [1]: > 10 µM
- inhibition at 10 µM ([1]; read-out: Variant E. indica PPO1 A212T % inhibition): 16%
- Concentration in medium that inhibited the growth of the transformed E. coli [2]: 50 µM
- Percent control (0 to 100) (Albizia julibrissin): 50%
- Percent control (0 to 100) (Crotalaria spectabilis): 99%
- Percent control (0 to 100) (Sesbania exaltata): 100%
- Percent control (0 to 100) (Physalis angulata): 70%
- Percent control (0 to 100) (Murdannia nudiflora): 0%
- Percent control (0 to 100) (Ipomoea lacunosa): 100%
- Percent control (0 to 100) (Sida spinosa): 90%
- Percent control (0 to 100) (Cyperus iria): 60%
- Percent control (0 to 100) (Ipomoea coccinea): 100%
- Percent control (0 to 100) (Ipomoea quamoclit): 100%
- Percent control (0 to 100) (Jaquemontia tamnifolia): 90%
- Percent control (0 to 100) (Kyllinga squamulata): 75%
- Percent control (0 to 100) (Sorghum halapense): 100%
- Percent control (0 to 100) (Eleusine indica): 100%
- Percent control (0 to 100) (Abutilon theophrasti): 100%
- Percent control (0 to 100) (Amaranthus hybridus): 100%
- Percent control (0 to 100) (Amaranthus palmeri): 75%
